Laboratory results taken from PubChem BioAssay (NCI).
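Where inhibition never reached the appropriate level, the endpoint shown equals the highest concentration tested. Otherwise, values were interpolated linearly from a five-concentration, 48-hour dose response in 96-well plates. At the GI50, growth is halved. Definition used: TGI = concentration required for complete inhibition of growth.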

Columns and labels:
Assay in all cases: inhibition of tumour cell growth, NCI panel, 48 h
TK-10 renal = tested on: TK-10 renal
PC-3 prostate = tested on: PC-3 prostate
HCT-15 colon = tested on: HCT-15 colon
IGROV1 ovarian = tested on: IGROV1 ovarian
OVCAR-3 ovarian = tested on: OVCAR-3 ovarian
MDA-MB-231 breast = tested on: MDA-MB-231 breast
NCI/ADR-RES ovarian = tested on: NCI/ADR-RES ovarian
HT29 colon = tested on: HT29 colon
K-562 leukemia = tested on: K-562 leukemia
UO-31 renal = tested on: UO-31 renal

Compound	TGI (TK-10 renal) [µM]	TGI (PC-3 prostate) [µM]	TGI (HCT-15 colon) [µM]	TGI (IGROV1 ovarian) [µM]	TGI (OVCAR-3 ovarian) [µM]	TGI (MDA-MB-231 breast) [µM]	TGI (NCI/ADR-RES ovarian) [µM]	TGI (HT29 colon) [µM]	TGI (K-562 leukemia) [µM]	TGI (UO-31 renal) [µM]	GI50 (TK-10 renal) [µM]	GI50 (PC-3 prostate) [µM]	GI50 (HCT-15 colon) [µM]	GI50 (OVCAR-3 ovarian) [µM]	GI50 (MDA-MB-231 breast) [µM]	GI50 (NCI/ADR-RES ovarian) [µM]	GI50 (HT29 colon) [µM]	GI50 (K-562 leukemia) [µM]	GI50 (UO-31 renal) [µM]	GI50 (IGROV1 ovarian) [µM]
Nc1cc(S(=O)(=O)O)cc2ccc(S(=O)(=O)O)cc12	> 100	> 100	> 100	> 100	> 100	> 100	> 100	> 100	> 100	> 100										
Cc1ccc2nc(-c3ccc(NC(=O)c4ccc(N)cc4)c(S(=O)(=O)O)c3)sc2c1	> 100	> 100	> 100	> 100	> 100	> 100	> 100	> 100	> 100	> 100										
N#Cc1ccccc1C#C/C=C\C#Cc1ccccc1N	> 49.3	> 75.9			2.64	8.37	29.2	> 100	> 100	> 25.7	5.02	5.99	3.85	0.165	2.13	2.44	4.38	4.12	4.79	
Cn1c2[n+](c3nc(N)[nH]c(=O)c31)C1OC(C2)C(O)C1O (stereo unspecified)	> 100			> 100	> 100			> 100	> 100	> 100										
COc1ccc(-c2nn(-c3ccc(NC(=O)c4cc(Cl)cc(Cl)c4)cc3)cc2-c2ccncc2)cc1Cl	> 100	> 100	> 100	> 100	> 100	4.85	> 100	> 100	> 100	> 100	6.18	5.38	1.77	> 100	1.39	> 100	2.26	1.86	3.43	> 100
O=C(O)C1CCCCN1C(=O)Cc1c[nH]c2ccccc12 (stereo unspecified)	> 100	> 100	> 100	> 100	> 100	> 100	> 100	> 100	> 100											
Cc1cc2ccc(OC(=O)c3ccc(N=C(N)N)cc3)cc2oc1=O	49.8	78.5	> 100	> 100	45.9	49.2	> 100	70.4	74.9	> 100										
CC(=O)Nc1ccc(C(=O)NN2C(=O)C(Cl)C2c2cccc([N+](=O)[O-])c2)cc1 (stereo unspecified)	> 100			> 100	> 100			> 100	> 100	> 100										
Cc1n[n+]([O-])c(C)cc1[N+](=O)[O-]	24.5	65.2	29.3	49	27.6	39.8	42.1	27		29.7										
COC(=O)C1CC23C4=C(CCC41)CCC1CN4CC(C)C(CC(OC(C)=O)C12COC(C)=O)C43O (stereo unspecified)	> 100	> 100	> 100	> 100	> 100	> 100	> 100	> 100	> 100	> 100										
CCOC(=O)c1c(-c2cccc(Cl)c2)c(C(=O)OC)c(C)c2sc(C=O)nc12	50	37.5	36.9	32.9	31.3	34.6	68.5	49.5	89.8	37.8										
CCOCC(=O)N(C)c1cccc2c3c(n(C)c12)CCCCC3			> 100	> 100	> 100		> 100	> 100	> 100											
OCCCSCCO	> 100	> 100	> 100	> 100	> 100	> 100	> 100	> 100	> 100	> 100										
CC1=CC(O)C(C(O)(C(F)(F)F)C(F)(F)F)C(C)(C)C1 (stereo unspecified)	> 10	> 10	> 10	0.986	> 10	> 10	> 10	> 10	> 10											
O=C(O)C(O)C(O)C(O)C(O)C(=O)O (stereo unspecified)		> 100	> 100	> 100	> 100	> 100	> 100	> 100	> 100	> 100										
COC(=O)C1=C(OC(=O)/C=C/c2ccc(Cl)cc2)C(C(=O)OC)[C@]2(O)[C@@H](C(=O)OC)[C@H]1C[C@@H](c1ccccc1)[C@@H]2C(=O)OC (stereo partly specified)	> 100	> 47.6	> 47.1	> 25.9	> 100	> 65.9	> 28.8	> 100	> 100	> 30.9										
O=C1C2Cc3c(n(C(=O)c4ccccc4)c4ccccc34)CC2C(=O)N1c1ccc(Nc2ccc(N3C(=O)C4Cc5c(n(C(=O)c6ccccc6)c6ccccc56)CC4C3=O)cc2)cc1 (stereo unspecified)	> 100	> 100	> 100	> 100	> 100	> 100	> 100	> 100	> 100	> 100										
